In patent US6159940A, “Method for modulating hemopoiesis” (Immunotech Developments Inc., priority 1999, dated 2000):

How the values were obtained:
[1] = Effect on kidney function (anti-diuretic activity); design: species or system white mice; details: mouse, in vivo
From the text: The anti-diuretic activity of H-Ile-Glu-Trp-OH was studied in 40 white mice.

[2] = system: mixed lymphocyte culture (H-2d anti H-2b); assay: Proliferation of mixed lymphocyte culture (MLC), 3H-thymidine; assay type: cell-based
Protocol: This experimental system is an in vitro the analog of the Graft Versus Host Disease reaction.
In the present series of experiments the reaction H-2d, anti H-2b was examined. The new combination responder-stimulator. Each variant was made in a triplet. Microcultures were incubated for 4 days, then 3H-thymidine was added; then the mixture was incubated for 16 more hours, and after its transfer to the filters, the amount of 3H-thymidine was determined. H-Ile-Glu-Trp-OH was added at the beginning of the incubation in different concentrations.

[3] = Clinical study: tolerance, biochemical indices, humoral status; assay type: in vivo, patients
From the text: The clinical study of H-Ile-Glu-Trp-OH was continued in groups of patients with pronounced secondary pathological changes in their immune system. The primary task of the first stage of the investigation was to observe the preparation tolerance, to reveal toxic, allergic and other reactions, hemogram dynamics and biochemical indices. Further investigation, along with further monitoring of the major clinical and laboratory parameters, included evaluation of the immunological status of a patient before and after the immunopeptide treatment.
Before instituting the treatment, examination was carried out including case history, clinical, laboratory and instrumental investigations. Necessary morphological investigations were performed to verify the diagnosis. There were also the results of hemogram dynamics before and after each treatment course of H-Ile-Glu-Trp-OH. After these courses the biochemical indices and urine tests were examined again. X-ray, ultrasonic and morphological examinations were repeated on indication.
Humoral immunity was also investigated: the content of different types of immunoglobulins, protein fractions, antibodies to thyroid, and the Coombs test (the latter was performed in the case of haemolytic anaemia).
One ml daily, intranasally, once or twice in divided doses, for 5 days. The course was repeated after a 3-week interval. To those patients who received a cytostatic mono- or polychemotherapy, H-Ile-Glu-Trp-OH was administered from the first day of the break in the cytostatic treatment.

[4] = system: CFU-S; assay: Regeneration of the CFU-S population in bone marrow of irradiated mice (4 Gy); assay type: in vivo
From the text: a) Scheme 1: mice received the peptide immediately after irradiation, daily. The mice were divided into groups: a control group--irradiated mice (4 Gy), and test groups--irradiated mice (4 Gy) received the peptide 1, 2, 3, and 4 times daily. Blood samples were taken four hours after the last peptide injection and on the 7th, 10th, and 16th day after the irradiation. Determined were total count of nucleated blood cells (NC) and lymphocyte percentage of them; nucleated cells and the CFU-S population in femoral bone marrow were counted on the 4th, 8th, and the 14th day.
From each group at least five mice were killed, their bone marrow was taken out and used to prepare the cell suspension, which was injected to lethally irradiated mice. After 9 days, CFU-S was counted in irradiated (4 Gy) donors receiving the peptide by counting the colonies grown on spleen. It was noted that with intramuscular administration of the peptide the CFU-S count in irradiated mice bone marrow was steadily growing starting from the 4th day, leaving the control CFU-S far behind.
b) According to scheme 2, the peptide injections were made starting from the 3rd day after the irradiation, at the same time of maximum depletion of the pool of mature nucleated cells and the bone marrow. The groups of mice were formed in the same way as in the previous scheme. Blood samples were taken 4 hours after the last injection i.e. on day 6, as well as on days 11, 14, 18, 21. Tables 9 and 10 present the data on karyocyte and lymphocyte counts in blood (per 1 mm^3) of mice treated according to scheme 2.

[5] = system: hemoglobin, erythrocytes; assay: Erythropoiesis in irradiated mice (4 Gy); assay type: in vivo; details: for Hemoglobin Content in blood: 4 Gy
From the text: The effect of the peptide on erythropoiesis in irradiated mice (4 Gy) was also studied. The mice were irradiated and treated with the peptide as in Example 7.

[6] = Acute toxicity in guinea pigs; assay type: in vivo; details: 20 guinea pigs
Protocol: To establish the safety of use of the peptides, toxicity tests were performed. Toxicity tests where performed in accordance Pharmacological Committee Russian Federation (RF) "guidelines for the pre-clinical study of general toxic activity of new pharmacological compounds". M., 1985.
Acute toxicity was studied in 20 guinea pigs and 6 dogs. […] The drug has a wide therapeutic range.

[7] = Chronic toxicity: peritheric blood and internals, 30 days, rabbits; assay type: in vivo; details: once daily for 30 days
Protocol: II.1 The H-Ile-Glu-Trp-OH effect on the composition and properties of the peritheric blood, the morphological state of the internals.
The drug was injected once daily for 30 days.
The test animals were 20 rabbits and 40 guinea pigs.

[8] = system: CFU-S; assay: Endogenous spleen colonies in irradiated mice (6 Gy); assay type: in vivo; details: 10 μg/kg IM, Day 9
Protocol: Test mice were irradiated in the dose of 6 Gy Beginning from the first hour after the irradiation, the mice received once daily IM injections of 10 μg/kg H-Ile-Glu-Trp-OH. Injections were made 1, 2, 3, or 4 times. The mice were killed on Day 9, spleens were taken out and fixed in Buene's solution, the colonies were counted. 110 mice were used in the test.

[9] = Effect on cardio-vascular and respiratory systems, guinea pigs; assay type: in vivo
Protocol: The effects of H-Ile-Glu-Trp-OH on ECG and arterial pressure were studied in guinea pigs and cats.
The test was conducted in 20 guinea pigs.

In the case of H-Ile-Glu-Trp-OH, the anti-diuretic activity [1] is reported as “not to have any anti-diuretic activity”, the “proliferation of the allogenic lymphocytes” value ([2]; 0.1 μg/ml (FIG. 4)) is reported as “negligible inhibition of the proliferation” and the “proliferation of the allogenic lymphocytes” value ([2]; 1, 10, and 20 μg/ml (FIG. 4)) is reported as “stimulation of proliferation”. For the same substance, the “protein fractions and immunoglobulins in patients' sera” value ([3]; 1-1.5 months after the treatment) was “No dynamics of these indices was found”, the “dynamics of biochemical indices” value ([3]; before and after 1-3 treatment courses) was “revealed no changes” and the “AP dynamics and ECG” value ([3]; human, in vivo) was “failed to reveal any changes”. The adverse reactions ([3]; prolonged administration (5-6 courses), intranasally) was “no toxic reactions”, the “cellular composition of bone marrow” value ([4]; scheme 1, i.m.) was “did not affect” and the “regeneration of the CFU-S population” value ([4]; scheme 1, i.m. (FIG. 1)) was “markedly stimulated regeneration of the CFU-S population”. For the same substance, the “CFU-S (absolute) in femoral bone marrow” value ([4]; scheme 2, 1 Time, Day 7) was 459 ± 26, the “CFU-S (absolute) in femoral bone marrow” value ([4]; scheme 2, 1 Time, Day 11) was 858 ± 67 and the “CFU-S (absolute) in femoral bone marrow” value ([4]; scheme 2, 1 Time, Day 14) was 1197 ± 75. The “CFU-S (absolute) in femoral bone marrow” value ([4]; scheme 2, 2 Time, Day 7) was 298 ± 27, the “CFU-S (absolute) in femoral bone marrow” value ([4]; scheme 2, 2 Time, Day 11) was 846 ± 44 and the “CFU-S (absolute) in femoral bone marrow” value ([4]; scheme 2, 2 Time, Day 14) was 902 ± 56. The “CFU-S (absolute) in femoral bone marrow” value ([4]; scheme 2, 3 Time, Day 7) was 305 ± 33, the “CFU-S (absolute) in femoral bone marrow” value ([4]; scheme 2, 3 Time, Day 11) was 1077 ± 56 and the “CFU-S (absolute) in femoral bone marrow” value ([4]; scheme 2, 3 Time, Day 14) was 1166 ± 68. For the same substance, the “CFU-S (absolute) in femoral bone marrow” value ([4]; scheme 2, 4 Time, Day 7) was 431 ± 48, the “CFU-S (absolute) in femoral bone marrow” value ([4]; scheme 2, 4 Time, Day 11) was 1147 ± 55 and the “CFU-S (absolute) in femoral bone marrow” value ([4]; scheme 2, 4 Time, Day 14) was 1434 ± 89. For the same substance, the “Erythrocyte counts, test versus control groups” value ([5]; 4 Gy mice) was “did not differ”, the “restoration of hemoglobin level” value ([5]; 4 Gy treated mice (control: by day 14)) was “become normal by the 11th day” and the “Hemoglobin Content in blood” value ([5]; scheme 2, 1 Time, Day 7) was 9.4 ± 0.8 r/dl. For the same substance, the “Hemoglobin Content in blood” value ([5]; scheme 2, 1 Time, Day 11) was 12.6 ± 0.1 r/dl, the “Hemoglobin Content in blood” value ([5]; scheme 2, 1 Time, Day 14) was 11.8 ± 0.5 r/dl and the “Hemoglobin Content in blood” value ([5]; scheme 2, 1 Time, Day 18) was 12.1 ± 0.1 r/dl. The “Hemoglobin Content in blood” value ([5]; scheme 2, 1 Time, Day 21) was 12.1 ± 0.4 r/dl, the “Hemoglobin Content in blood” value ([5]; scheme 2, 2 Times, Day 7) was 9.6 ± 0.4 r/dl and the “Hemoglobin Content in blood” value ([5]; scheme 2, 2 Times, Day 11) was 12.0 ± 0.1 r/dl. For the same substance, the “Hemoglobin Content in blood” value ([5]; scheme 2, 2 Times, Day 14) was 10.8 ± 0.8 r/dl, the “Hemoglobin Content in blood” value ([5]; scheme 2, 2 Times, Day 18) was 11.5 ± 0.6 r/dl and the “Hemoglobin Content in blood” value ([5]; scheme 2, 2 Times, Day 21) was 11.7 ± 0.6 r/dl. The “Hemoglobin Content in blood” value ([5]; scheme 2, 3 Times, Day 7) was 10.15 ± 0.8 r/dl, the “Hemoglobin Content in blood” value ([5]; scheme 2, 3 Times, Day 11) was 11.9 ± 0.4 r/dl and the “Hemoglobin Content in blood” value ([5]; scheme 2, 3 Times, Day 14) was 12.1 ± 0.2 r/dl. The “Hemoglobin Content in blood” value ([5]; scheme 2, 3 Times, Day 18) was 11.7 ± 0.2 r/dl, the “Hemoglobin Content in blood” value ([5]; scheme 2, 3 Times, Day 21) was 11.9 ± 0.3 r/dl and the “Hemoglobin Content in blood” value ([5]; scheme 2, 4 Times, Day 7) was 14.4 ± 0.9 r/dl. The “Hemoglobin Content in blood” value ([5]; scheme 2, 4 Times, Day 11) was 12.2 ± 0.1 r/dl, the “Hemoglobin Content in blood” value ([5]; scheme 2, 4 Times, Day 14) was 12.0 ± 0.2 r/dl and the “Hemoglobin Content in blood” value ([5]; scheme 2, 4 Times, Day 18) was 11.7 ± 0.4 r/dl. For the same substance, the “Hemoglobin Content in blood” value ([5]; scheme 2, 4 Times, Day 21) was 12.0 ± 0.6 r/dl, the acute toxicity [6] was “No toxic effects were observed” and the “pathologic changes in the body or peritheric blood” value [7] was “did not cause any pathologic changes”. The “Colony (endogenous spleen colonies)” value ([8]; 1 times) was 3.3 ± 0.6, the “Colony (endogenous spleen colonies)” value ([8]; 2 times) was 4.4 ± 0.5 and the “Colony (endogenous spleen colonies)” value ([8]; 3 times) was 5.0 ± 0.7. The “Colony (endogenous spleen colonies)” value ([8]; 4 times) was 5.2 ± 0.8 and the “ECG readings and arterial pressure” value [9] was “No significant difference from control”.
